Results: patent US10259808B2 (Genentech, Inc., priority 2015, dated 2019)

Target: T1, RORc ligand binding domain (Homo sapiens, UniProt P51449)
T1 sequence (P51449 269-508 limits assumed): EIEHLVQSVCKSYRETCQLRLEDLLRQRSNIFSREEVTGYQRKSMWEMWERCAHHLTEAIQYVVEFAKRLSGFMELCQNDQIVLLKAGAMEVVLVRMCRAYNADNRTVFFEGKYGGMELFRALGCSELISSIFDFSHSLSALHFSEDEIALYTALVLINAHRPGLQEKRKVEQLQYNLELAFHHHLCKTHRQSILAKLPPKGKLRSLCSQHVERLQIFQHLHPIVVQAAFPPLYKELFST
Experiment: In vitro RORc ligand binding assay (25-[3H]hydroxycholesterol displacement)

IC50 [nM] | SMILES
2.1 | C[C@H]1CC[C@H](c2ccccc2)S(=O)(=O)N1Cc1cc(F)c([C@]2(c3n[nH]c(=O)o3)C[C@@H](O)C2)cc1F [Example 124, cis-5-[1-[2,5-difluoro-4-[[(3S,6R)-3-methyl-1,1-dioxo-6-phenyl-thiazinan-2-yl]methyl]phenyl]-3-hydroxy-cyclobutyl]-3H-1,3,4-oxadiazol-2-one]
3.4 | C[C@H]1CC[C@H](c2ccccc2)S(=O)(=O)N1Cc1cc(F)c([C@]2(c3n[nH]c(=O)o3)C[C@](C)(O)C2)cc1F [Example 128, trans-5-[1-[2,5-difluoro-4-[[(3S,6R)-3-methyl-1,1-dioxo-6-phenyl-thiazinan-2-yl]methyl]phenyl]-3-hydroxy-3-methyl-cyclobutyl]-3H-1,3,4-oxadiazol-2-one]
51.9 | C[C@H]1CC[C@H](c2ccccc2)S(=O)(=O)N1Cc1cc(F)c([C@]2([C@H]3CNC(=O)O3)C[C@](C)(O)C2)cc1F (racemic) [Example 172, rac-(5S)-5-[1-[2,5-difluoro-4-[[rac-(3S,6R)-3-methyl-1,1-dioxo-6-phenyl-thiazinan-2-yl]methyl]phenyl]-3-hydroxy-3-methyl-cyclobutyl]oxazolidin-2-one]
28.2 | C[C@H]1CC[C@H](c2ccccc2)S(=O)(=O)N1Cc1cc(F)c(C2(c3nnc(CO)o3)CCOCC2)cc1F [Example 57, [5-[4-[2,5-difluoro-4-[[(3S,6R)-3-methyl-1,1-dioxo-6-phenyl-thiazinan-2-yl]methyl]phenyl]tetrahydropyran-4-yl]-1,3,4-oxadiazol-2-yl]methanol]
6.1 | C=C[C@]1(O)C[C@@](c2c[nH]c(=O)o2)(c2cc(F)c(CN3[C@@H](C)CC[C@H](c4ccccc4)S3(=O)=O)cc2F)C1 [Example 164, 5-[1-[2,5-difluoro-4-[[(3S,6R)-3-methyl-1,1-dioxo-6-phenyl-thiazinan-2-yl]methyl]phenyl]-3-hydroxy-3-vinyl-cyclobutyl]-3H-oxazol-2-one]
63.6 | C[C@H]1CC[C@H](c2ccccc2)S(=O)(=O)N1Cc1ccc(C2(c3noc(CO)n3)CCOCC2)cc1F [Example 29, [3-[4-[3-fluoro-4-[[(3S,6R)-3-methyl-1,1-dioxo-6-phenyl-thiazinan-2-yl]methyl]phenyl]tetrahydropyran-4-yl]-1,2,4-oxadiazol-5-yl]methanol]
63.8 | Cc1nocc1CNC(=O)C1(c2ccc(CN3[C@@H](C)CC[C@H](c4ccccc4)S3(=O)=O)c(F)c2)CCOCC1 [Example 2]
7 | C[C@H]1CC[C@H](c2ccccc2)S(=O)(=O)N1Cc1cc(F)c([C@]2(c3nnc[nH]3)C[C@](C)(O)C2)cc1F [Example 145, trans 3-[2,5-difluoro-4-[[(3S,6R)-3-methyl-1,1-dioxo-6-phenyl-thiazinan-2-yl]methyl]phenyl]-1-methyl-3-(4H-1,2,4-triazol-3-yl)cyclobutanol]
173 | C[C@H]1CC[C@H](c2ccccc2)S(=O)(=O)N1Cc1ccc(C2(C(=O)NCc3cnccn3)CCOCC2)cc1F [Example 10]
12.8 | C[C@H]1CC[C@H](c2ccccc2)S(=O)(=O)N1Cc1cc(F)c(C2(c3nnc(N)o3)CC(F)(F)C2)cc1F [Example 132, 5-[1-[2,5-difluoro-4-[[(3S,6R)-3-methyl-1,1-dioxo-6-phenyl-thiazinan-2-yl]methyl]phenyl]-3,3-difluoro-cyclobutyl]-1,3,4-oxadiazol-2-amine]
126 | Cc1n[nH]cc1C(=O)NC1(c2cc(F)c(CN3[C@@H](C)CC[C@H](c4ccccc4)S3(=O)=O)cc2F)COC1 (stereo in doubt) [Example 130, N-[3-[2,5-difluoro-4-[[(3S,6R)-3-methyl-1,1-dioxo-6-phenyl-thiazinan-2-yl]methyl]phenyl]oxetan-3-yl]-3-methyl-1H-pyrazole-4-carboxamide]
15.5 | C[C@H]1CC[C@@H](c2ccccc2)S(=O)(=O)N1Cc1cc(F)c([C@]2(c3c[nH]c(=O)o3)C[C@@](O)(C3(C)CC3)C2)cc1F (racemic) [Example 166, 5-[1-[2,5-difluoro-4-[[rac-(3S,6S)-3-methyl-1,1-dioxo-6-phenyl-thiazinan-2-yl]methyl]phenyl]-3-hydroxy-3-(1-methylcyclopropyl)cyclobutyl]-3H-oxazol-2-one]
10 | C[C@H]1CC[C@H](c2ccccc2)S(=O)(=O)N1Cc1cc(F)c([C@]2(NCC3(C)COC3)C[C@](C)(O)C2)cc1F (racemic) [Example 187, 3-[2,5-difluoro-4-[[rac-(3S,6R)-3-methyl-1,1-dioxo-6-phenyl-thiazinan-2-yl]methyl]phenyl]-1-methyl-3-[(3-methyloxetan-3-yl)methylamino]cyclobutanol]
19.6 | C[C@H]1CC[C@H](c2ccccc2)S(=O)(=O)N1Cc1ccc(C2(C(=O)n3nccc3N)CCOCC2)cc1F
60.7 | C[C@H]1CC[C@H](c2ccccc2)S(=O)(=O)N1Cc1cc(F)c(C2(Nc3ncccn3)COC2)cc1F [Example 101, N-[3-[2,5-difluoro-4-[[(3S,6R)-3-methyl-1,1-dioxo-6-phenyl-thiazinan-2-yl]methyl]phenyl]oxetan-3-yl]pyrimidin-2-amine]
6.6 | C[C@H]1CC[C@H](c2ccccc2)S(=O)(=O)N1Cc1ccc(C2(NCc3cnccn3)CCOCC2)cc1F [Example 66, 4-[3-fluoro-4-[[(3S,6R)-3-methyl-1,1-dioxo-6-phenyl-thiazinan-2-yl]methyl]phenyl]-N-(pyrazin-2-ylmethyl)tetrahydropyran-4-amine]
23.4 | C[C@H]1CC[C@H](c2ccccc2)S(=O)(=O)N1Cc1cc(F)c(C2(C(=O)NCc3ccnn3C)CCOCC2)cc1F [Example 33, 4-[2,5-difluoro-4-[[(3S,6R)-3-methyl-1,1-dioxo-6-phenyl-thiazinan-2-yl]methyl]phenyl]-N-[(2-methylpyrazol-3-yl)methyl]tetrahydropyran-4-carboxamide]
19.5 | C[C@H]1CC[C@H](c2ccccc2)S(=O)(=O)N1Cc1cc(F)c(C2(c3n[nH]c(=O)o3)CC2)cc1F [Example 121, 5-[1-[2,5-difluoro-4-[[(3S,6R)-3-methyl-1,1-dioxo-6-phenyl-thiazinan-2-yl]methyl]phenyl]cyclopropyl]-3H-1,3,4-oxadiazol-2-one]
9.2 | C[C@H]1CC[C@H](c2ccccc2)S(=O)(=O)N1Cc1cc(F)c([C@]2(c3n[nH]c(=O)o3)C[C@](O)(C3CC3)C2)cc1F [Example 141, cis 5-[3-cyclopropyl-1-[2,5-difluoro-4-[[(3S,6R)-3-methyl-1,1-dioxo-6-phenyl-thiazinan-2-yl]methyl]phenyl]-3-hydroxy-cyclobutyl]-3H-1,3,4-oxadiazol-2-one]
14.3 | C[C@H]1CC[C@H](c2ccccc2)S(=O)(=O)N1Cc1ccc(C2(c3nc(C4CC4)no3)CCOCC2)cc1F [Example 23]
102 | C[C@H]1CC[C@H](c2ccccc2)S(=O)(=O)N1Cc1ccc(C2(c3nnc(CO)o3)CCOCC2)cc1F [Example 44, [5-[4-[3-fluoro-4-[[(3S,6R)-3-methyl-1,1-dioxo-6-phenyl-thiazinan-2-yl]methyl]phenyl]tetrahydropyran-4-yl]-1,3,4-oxadiazol-2-yl]methanol]
75.7 | C[C@H]1CC[C@H](c2ccccc2)S(=O)(=O)N1Cc1ccc(C2(C(=O)NCc3ccno3)CCOCC2)cc1F [Example 4]
245 | C[C@H]1CC[C@H](c2ccccc2)S(=O)(=O)N1Cc1ccc(C2(c3noc(=O)[nH]3)CCOCC2)cc1F [Example 30, 3-[4-[3-fluoro-4-[[(3S,6R)-3-methyl-1,1-dioxo-6-phenyl-thiazinan-2-yl]methyl]phenyl]tetrahydropyran-4-yl]-4H-1,2,4-oxadiazol-5-one]
23 | C[C@H]1CC[C@H](c2ccccc2)S(=O)(=O)N1Cc1cc(F)c([C@]2(c3nn(CC#N)c(=O)o3)C[C@](C)(O)C2)cc1F (racemic) [Example 174, 2-[5-[1-[2,5-difluoro-4-[[rac-(3S,6R)-3-methyl-1,1-dioxo-6-phenyl-thiazinan-2-yl]methyl]phenyl]-3-hydroxy-3-methyl-cyclobutyl]-2-oxo-1,3,4-oxadiazol-3-yl]acetonitrile]
299 | C[C@H]1CC[C@H](c2ccccc2)S(=O)(=O)N1Cc1ccc(C2(C(=O)Nc3ncnn3C)CCOCC2)cc1F [Example 7]
3.6 | COc1cc([C@]2(c3cc(F)c(CN4[C@@H](C)CC[C@H](c5ccccc5)S4(=O)=O)cc3F)C[C@@](C)(O)C2)on1 [Example 162, 3-[2,5-difluoro-4-[[(3S,6R)-3-methyl-1,1-dioxo-6-phenyl-thiazinan-2-yl]methyl]phenyl]-3-(3-methoxyisoxazol-5-yl)-1-methyl-cyclobutanol]
19.2 | C[C@H]1CC[C@H](c2ccccc2)S(=O)(=O)N1Cc1cc(F)c(C2(c3nnc(N)o3)CCOCC2)cc1F [Example 61, 5-[4-[2,5-difluoro-4-[[(3S,6R)-3-methyl-1,1-dioxo-6-phenyl-thiazinan-2-yl]methyl]phenyl]tetrahydropyran-4-yl]-1,3,4-oxadiazol-2-amine]
7.2 | C[C@H]1CC[C@H](c2ccccc2)S(=O)(=O)N1Cc1cc(F)c([C@]2(c3n[nH]c(=O)o3)C[C@@](C)(O)C2)cc1F [Example 127, cis-5-[1-[2,5-difluoro-4-[[(3S,6R)-3-methyl-1,1-dioxo-6-phenyl-thiazinan-2-yl]methyl]phenyl]-3-hydroxy-3-methyl-cyclobutyl]-3H-1,3,4-oxadiazol-2-one]
6.4 | COC[C@]1(O)C[C@@](c2n[nH]c(=O)o2)(c2cc(F)c(CN3[C@@H](C)CC[C@H](c4ccccc4)S3(=O)=O)cc2F)C1 (racemic) [Example 169, 5-[1-[2,5-difluoro-4-[[rac-(3S,6R)-3-methyl-1,1-dioxo-6-phenyl-thiazinan-2-yl]methyl]phenyl]-3-hydroxy-3-(methoxymethyl)cyclobutyl]-3H-1,3,4-oxadiazol-2-one]
